For 21 compounds, Ki and melting point results are on record in US20060030566A1, “Novel quinoxalinone norepinephrine reuptake inhibitors for the treatment of central nervous system disorders” (Warner-Lambert Company, LLC, priority 2004, published 2006).

Data set [1] deals with T1, human norepinephrine transporter (Homo sapiens, UniProt P23975).
T1 construct: host or cells: HEK-293
The data set can be described thus: hNET receptor binding ([125I]-RTI-55 radioligand binding, membranes of transfected HEK-293 cells). Particulars: 50 pM [125I]-RTI-55, HEK-293 cell membranes, 90 min at room temperature; IC50 converted to Ki by Cheng-Prusoff equation. An excerpt:
The ability of the compounds of this invention to bind to the hNET and serotonin SERT receptor can be determined using conventional radioligand receptor binding assays. The receptors can be heterologously expressed in cell lines and experiments conducted in membrane preparations from the cell lines using procedures outlined below. IC50 concentrations can be determined by nonlinear regression of concentration-dependent reduction in specific binding. The Cheng-Prussoff equation can be used to convert the IC50 to Ki concentrations.
Cell pastes of HEK-293 cells transfected with the human norepinephrine transporter were supplied by the Pfizer Ann Arbor Protein Expression and Production group. Pellets were resuspended in 400 to 700 ml of Krebs-HEPES assay buffer (25 mM HEPES, 122 mM NaCl, 3 mM KCl, 1.2 mM MgSO4, 1.3 mM CaCl2, and 11 mM glucose, pH 7.4) with a Polytron homogenizer at setting 7 for 30 sec. Aliquots of membranes (5 mg/ml protein) were stored in liquid nitrogen until used.
The binding assay was set up in Beckman deep-well polypropylene plates with a total volume of 250 μl containing: drug (10^−5M to 10^−12M), cell membranes, and 50 pM [^125I]-RTI-55 (Perkin Elmer, NEX-272; specific activity 2200 Ci/mmol). The reaction was incubated by gentle agitation for 90 min at room temperature and was terminated by filtration through Whatman GF/C filter plates using a Brandel 96-well plate harvester. Scintillation fluid (100 μl) was added to each well, and bound [^125I]-RTI-55 was determined using a Wallac Trilux Beta Plate Counter. Test compounds were run in duplicate, and specific binding was defined as the difference between binding in the presence and absence of 10 μM desipramine.
Excel and GraphPad Prism software were used for data calculation and analysis. IC50 values were converted to Ki values using the Cheng-Prusoff equation.

Counter-ions that a name gives are not always drawn.

T1 sequence (P23975 whole entry): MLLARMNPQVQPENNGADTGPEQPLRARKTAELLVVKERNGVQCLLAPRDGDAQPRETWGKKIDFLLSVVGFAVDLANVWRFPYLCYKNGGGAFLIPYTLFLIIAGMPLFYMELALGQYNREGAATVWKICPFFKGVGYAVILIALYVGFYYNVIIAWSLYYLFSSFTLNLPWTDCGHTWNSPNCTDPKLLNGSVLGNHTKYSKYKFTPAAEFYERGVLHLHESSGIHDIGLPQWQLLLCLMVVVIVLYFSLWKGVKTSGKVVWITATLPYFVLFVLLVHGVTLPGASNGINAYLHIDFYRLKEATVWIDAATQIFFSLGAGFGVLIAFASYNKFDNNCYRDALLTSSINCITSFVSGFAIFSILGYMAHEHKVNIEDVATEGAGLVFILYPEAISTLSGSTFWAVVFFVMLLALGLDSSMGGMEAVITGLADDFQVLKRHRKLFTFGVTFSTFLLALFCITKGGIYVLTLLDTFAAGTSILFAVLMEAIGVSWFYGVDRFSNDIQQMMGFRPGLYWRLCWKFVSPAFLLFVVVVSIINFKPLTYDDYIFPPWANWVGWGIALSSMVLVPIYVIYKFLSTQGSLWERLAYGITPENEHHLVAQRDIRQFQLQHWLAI

Turning to `O=c1c(N2CCNCC2)nc2ccccc2n1-c1ccccc1Cl` [Example 4, 1-(2-Chloro-phenyl)-3-piperazin-1-yl-1H-quinoxalin-2-one], the melting point was in the range of 135 to 137 °C. In addition, the Ki in data set [1] was determined as 44 nM.

In data set [1], `Cc1ccc(-n2c(=O)c(N3CCNCC3)nc3ccccc32)cc1` [Example 7, 3-Piperazin-1-yl-1-p-tolyl-1H-quinoxalin-2-one Maleate] displayed a Ki of 36 nM.

Turning to `Cc1ccccc1-n1c(=O)c(N2CCNCC2)nc2ccccc21` [Example 5, 3-Piperazin-1-yl-1-o-tolyl-1H-quinoxalin-2-one], the melting point is 151 to 153 °C. In addition, in data set [1], the Ki was determined as 69 nM.

`Cc1ccc(-n2c(=O)c(N3CCNCC3)nc3ccccc32)cc1` (as salt: maleate) [Example 7, 3-Piperazin-1-yl-1-p-tolyl-1H-quinoxalin-2-one Maleate] showed a melting point of 197 to 199 °C.

Consider `CC(C)n1c(=O)c(N2CCCNCC2)nc2ccccc21` [Example 15, 3-[1,4]Diazepan-1-yl-1-isopropyl-1H-quinoxalin-2-one Maleate], for which, in data set [1], the Ki was found to be 70 nM. The compound `CC(C)n1c(=O)c(N2CCCNCC2)nc2ccccc21` (as salt: maleate) [Example 15, 3-[1,4]Diazepan-1-yl-1-isopropyl-1H-quinoxalin-2-one Maleate] showed a melting point of 147 to 149 °C. Compound `O=c1c(N2CCNCC2)nc2ccccc2n1-c1ccccc1` (as salt: hydrochloride) [Example 2, 1-Phenyl-3-piperazin-1-yl-1H-quinoxalin-2-one Hydrochloride] returned a melting point of 290 to 292 °C. In the case of `O=c1c(N2CCNCC2)nc2cc(F)ccc2n1-c1c(F)cccc1F` [Example 10, 1-(2,6-Difluoro-phenyl)-6-fluoro-3-piperazin-1-yl-1H-quinoxalin-2-one], the melting point fell in the range of 146 to 147 °C. The affinity in data set [1] corresponds to a Ki of 15 nM. Regarding `O=c1c(N2CCNCC2)nc2ccccc2n1-c1ccccc1` [Example 2, 1-Phenyl-3-piperazin-1-yl-1H-quinoxalin-2-one Hydrochloride], in data set [1], the Ki is 21 nM. For the compound `O=c1c(N2CCCNCC2)nc2ccccc2n1-c1cccc(F)c1` [Example 12, 3-[1,4]Diazepan-1-yl-1-(3-fluoro-phenyl)-1H-quinoxalin-2-one], the melting point was 128 to 129 °C. In addition, the Ki in data set [1] came to 60 nM. Compound `Cc1ccc2nc(N3CCNCC3)c(=O)n(-c3ccccc3)c2c1` [Example 9, 7-Methyl-1-phenyl-3-piperazin-1-yl-1H-quinoxalin-2-one] registered a melting point of 166 to 168 °C. In addition, the Ki in data set [1] worked out at 82 nM. On to `O=c1c(N2CCNCC2)nc2ccccc2n1-c1ccccc1F` [Example 3, 1-(2-Fluoro-phenyl)-3-piperazin-1-yl-1H-quinoxalin-2-one Hydrochloride], for which affinity in data set [1] was put at a Ki of 11 nM. `O=c1c(N2CCCNCC2)nc2cc(F)ccc2n1-c1ccccc1` [Example 14, 3-[1,4]Diazepan-1-yl-6fluoro-1-phenyl-1H-quinoxalin-2-one] displayed a melting point of 151 to 152 °C. For the same compound, affinity in data set [1] was put at a Ki of 27 nM. On to `O=c1c(N2CCNCC2)nc2ccccc2n1-c1ccccc1F` (as salt: hydrochloride) [Example 3, 1-(2-Fluoro-phenyl)-3-piperazin-1-yl-1H-quinoxalin-2-one Hydrochloride], for which the melting point lay within 261 to 263 °C.

Compound `O=c1c(N2CCCNCC2)nc2ccccc2n1-c1ccccc1Cl` (as salt: maleate) [Example 11, 1-(2-Chloro-phenyl)-3-[1,4]diazepan-1-yl-1H-quinoxalin-2-one Maleate] came in with a melting point of 159 to 161 °C. `O=c1c(N2CCNCC2)nc2ccc(F)cc2n1-c1ccccc1` [Example 8, 7-Fluoro-1-phenyl-3-piperazin-1-yl-1H-quinoxalin-2-one] returned a melting point of 142 to 143 °C. Also, in data set [1], the inhibition constant (Ki) is 59 nM.

Regarding `O=c1c(N2CCNCC2)nc2ccccc2n1-c1cccc(F)c1` [Example 6, 1-(3-Fluoro-phenyl)-3-piperazin-1-yl-1H-quinoxalin-2-one], the melting point is 149 to 150 °C. In data set [1], the Ki stood at 38 nM.

The compound `Cc1ccc(-n2c(=O)c(N3CCCNCC3)nc3ccccc32)cc1` [Example 13, 3-[1,4]Diazepan-1-yl-1-p-tolyl-1H-quinoxalin-2-one Maleate] yielded a Ki in data set [1] of 97 nM. The compound `O=c1c(N2CCNCC2)nc2cc(F)ccc2n1-c1ccccc1` [Example 1, 6-Fluoro-1-phenyl-3-piperazin-1-yl-1H-quinoxalin-2-one] returned a melting point of 150 to 152 °C. The compound also yielded a Ki in data set [1] of 12 nM. `O=c1c(N2CCCNCC2)nc2ccccc2n1-c1ccccc1Cl` [Example 11, 1-(2-Chloro-phenyl)-3-[1,4]diazepan-1-yl-1H-quinoxalin-2-one Maleate] registered a Ki in data set [1] of 41 nM. On to `Cc1ccc(-n2c(=O)c(N3CCCNCC3)nc3ccccc32)cc1` (as salt: maleate) [Example 13, 3-[1,4]Diazepan-1-yl-1-p-tolyl-1H-quinoxalin-2-one Maleate], for which the melting point was in the range of 199 to 200 °C.

As usually defined, the Ki is the equilibrium dissociation constant of an inhibitor or competing ligand from its target. Higher therefore signals lower affinity. In general, melting point refers to the temperature of the solid-liquid transition.
